Source: patent publication US8735387B2, “Oxazolopyrimidines as Edg-1 receptor agonists” (Sanofi, priority 2008, dated 2014)

biological target: T1, human Edg-1 receptor (Homo sapiens, UniProt P21453); assay: GTP-γ-S assay using human Edg-1 receptors (scintillation proximity assay, membrane preparation from CHO Flp-In cell line); assay type: biochemical; details: example compound at 10 μM; relative to 10 μM S1P; GTP-γ-S SPA, human Edg-1 membranes
T1 construct: expressed in transfected cells; membrane preparation
T1 sequence (P21453 whole entry): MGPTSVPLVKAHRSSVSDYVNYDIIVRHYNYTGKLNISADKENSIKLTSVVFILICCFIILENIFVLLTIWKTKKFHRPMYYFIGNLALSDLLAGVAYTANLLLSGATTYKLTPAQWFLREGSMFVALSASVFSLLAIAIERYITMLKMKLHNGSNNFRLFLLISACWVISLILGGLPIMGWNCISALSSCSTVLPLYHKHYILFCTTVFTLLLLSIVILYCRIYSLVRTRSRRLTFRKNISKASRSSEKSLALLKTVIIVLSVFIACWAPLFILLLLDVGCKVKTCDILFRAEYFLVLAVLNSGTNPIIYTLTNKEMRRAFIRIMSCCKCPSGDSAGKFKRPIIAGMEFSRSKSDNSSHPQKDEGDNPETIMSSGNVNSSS
Source text: Determination of the Pharmacological Activity A) GTP-γ-S Assay Using Human Edg-1 Receptors
In order to determine the Edg-1 receptor activation by the compounds of the invention, a GTP-γ-S (guanosine 5′-[γ-thio]triphosphate) assay for G-protein coupled receptor binding based on the scintillation proximity assay principle was used, employing a cell membrane preparation from a CHO Flp-In cell line which constitutively overexpresses the human Edg-1 receptor.
The Flp-In™ expression system (Invitrogen, cat. no. K6010-01) allows the generation of stable mammalian cell lines into which the gene of interest has been integrated through homologous recombination at a specific genomic location called Flp Recombination Target (FRT) site by means of a Flp recombinase encoded by the pOG44 expression plasmid. The integration of the pcDNA5/FRT expression construct into the Flp-In host cell line genome results in the transcription of the gene of interest. The stably transfected cells become hygromycin-resistant.
One day prior to transfection, 200 000 Flp-In-CHO cells were seeded in Ham F-12 medium (Invitrogen, cat. no. 31765) supplemented with 10% fetal calf serum (FCS; Perbio Science, cat. no. SH30068.03) in a 6-well plate and incubated at 37° C./5% CO2 overnight. Using the FuGENE® 6 transfection reagent (Roche, cat. no. 11988387001), cells were cotransfected with the Flp recombinase expression plasmid pOG44 and a modified plasmid additionally containing the edg-1 gene (accession no. NM_001400) termed as pcDNA5-FRT-TO_nFLAG_DEST-EDG-1 with a 9:1 ratio. To obtain the modified pcDNA5-FRT-TO_nFLAG_DEST plasmid, the Invitrogen plasmid pcDNA5/FRT/TO (Invitrogen, cat. no. V6520-20) was adapted to the Gateway® (Invitrogen) cloning system by inserting a Gateway cassette containing attR recombination sites flanking a ccdB gene and a chloramphenicol-resistance gene (Gateway conversion system, Invitrogen, cat. no. 11828-029). In addition a FLAG tag epitope was added before the 5′ att recombination site to allow recombinant expression of N-terminally FLAG-tagged proteins.
For the transfection of one well, 1.08 μg of pOG44 and 0.12 μg of pcDNA5-FRT-TO_nFLAG_DEST-EDG-1 were mixed to 100 μl of serum-free Ham F-12 medium containing 6 μl of FuGENE® 6 transfection reagent. After 20 min of incubation, the transfection reagent/DNA complex was distributed dropwise on the cells. The cells were incubated for 24 h at 37° C. Then the cells from 3 wells each were transferred to a T75 flask (Greiner Cellstar®, cat. no. 658175) containing Ham F-12 medium supplemented with 10% of FCS but without antibiotic and were incubated another 24 h. 48 h after transfection, the medium was replaced by selection medium (Ham F-12 supplemented with 10% of FCS and 300 μg/ml of hygromycin B (Invitrogen, cat. no. 10687-010)). The medium was exchanged every 2 to 3 days until a resistant population of cells had grown. […] After 2 weeks of selection, the cells were transferred into T175 flasks (Greiner Cellstar®, cat. no. 660175) and cultivated for batch production. Cells were harvested from the culture flasks by short treatment (2 to 5 min) with Accutase (PAA, cat. no. L11-007), resuspended in selection medium (see above) and centrifuged at 200×g for 5 min. Cells were resuspended in a mixture of 90% of FCS and 10% of dimethylsulfoxide and stored frozen in liquid nitrogen.
A membrane preparation was obtained by standard methods from the afore-described CHO Flp-In cell line constitutively overexpressing the human Edg-1 receptor. Briefly, the cryopreserved cells were taken in culture and grown until confluency in T175 cell culture flasks (Becton Dickinson, cat. no. 35 5001). […]

Compound | % Activation (Edg-1 receptor activation in percent of the activation by 10 μM S1P) [%]
CCCOc1nc(CN2CC3CC2CO3)nc2oc(-c3cccc(F)c3)nc12 (centres unmarked) [Example 49] | 48
CCCOc1nc(Cc2ccc(Cl)cc2)nc2oc(-c3cc(C)c(OCC(=O)OC)c(C)c3)nc12 [Example 248] | 89
CCCOc1nc(CN2CCC(F)(F)CC2)nc2oc(-c3ccc(Br)o3)nc12 [Example 98] | 120
CCCOc1nc(CN2CCCOCC2)nc2oc(-c3ccccc3)nc12 [Example 43] | 122
CCCOc1nc(CN2CCC(F)(F)CC2)nc2oc(-c3cncc(F)c3)nc12 [Example 40] | 123
Fc1cccc(-c2nc3c(OC4CCCC4)nc(Cc4ccc(Cl)cc4)nc3o2)c1 [Example 112] | 66
CCCOc1nc(Cc2ccc(Cl)cc2)nc2oc(-c3cc(C)c(OCCCNCCC(=O)OC(C)(C)C)c(C)c3)nc12 [Example 230] | 101
CCOc1nc(Cc2ccc(Cl)cc2)nc2oc(-c3cc(C)c(OCCCS(=O)(=O)c4ncn[nH]4)c(C)c3)nc12 [Example 295] | 100
CCCOc1nc(Cc2ccc(Cl)cc2)nc2oc(-c3cc(C)c(OCC(O)CNCc4ccccc4)c(C)c3)nc12 (centres unmarked) [Example 209] | 110
CCCOc1nc(CN2CCOCC2)nc2oc(-c3ccc(OC)c(F)c3)nc12 [Example 88] | 101
CCOc1nc(Cc2ccc(Cl)cc2)nc2oc(-c3cc(C)c(OCCCSc4nnc(C5CC5)[nH]4)c(C)c3)nc12 [Example 276] | 54
CCCOc1nc(CN2CCCOCC2)nc2oc(-c3ccc(Cl)c(F)c3)nc12 [Example 91] | 96
CCCOc1nc(CN2CCSCC2)nc2oc(-c3cccc(F)c3)nc12 [Example 65] | 109
Cc1cccc(-c2nc3c(OCC4CC4)nc(C(C)c4ccccc4)nc3o2)c1 (centres unmarked) [Example 16] | 106
CCCOc1nc(Cc2ccc(Cl)cc2)nc2oc(-c3cc(C)c(OCC(O)CNC(=O)CO)c(C)c3)nc12 (centres unmarked) [Example 212] | 78
CCCOc1nc(Cc2ccccc2)nc2oc(-c3cccc(OCCO)c3)nc12 [Example 213] | 101
CCOc1nc(Cc2ccc(Cl)cc2)nc2oc(-c3cc(C)c(OCC(=O)NCCCNS(C)(=O)=O)c(C)c3)nc12 [Example 299] | 94
CCOc1nc(Cc2ccc(Cl)cc2)nc2oc(-c3cc(C)c(OCC(=O)NCCNS(C)(=O)=O)c(C)c3)nc12 [Example 290] | 114
CCCC(=O)NCC(O)COc1c(C)cc(-c2nc3c(OCC)nc(Cc4ccc(Cl)cc4)nc3o2)cc1C (centres unmarked) [Example 216] | 105
CCCOc1nc(Cc2ccc(Cl)cc2)nc2oc(-c3cc(F)ccc3F)nc12 [Example 131] | 116

Compound | % Activation (Edg-1 receptor activation in percent of the activation by 10 μM S1P) [%]
CCCOc1nc(Cc2ccc(Cl)cc2)nc2oc(-c3cccc(OC)c3)nc12 [Example 129] | 108
CCCOc1nc(CN2CC(C(=O)OC)C2)nc2oc(-c3cccc(F)c3)nc12 [Example 52] | 35
CCCOc1nc(Cn2ccnn2)nc2oc(-c3cccc(F)c3)nc12 [Example 44] | 78
CCCCOc1nc(Cc2ccc(Cl)cc2)nc2oc(-c3cccs3)nc12 [Example 115] | 33
Cc1cccc(-c2nc3c(OC4CCCC4)nc(Cc4ccc(Cl)cc4)nc3o2)c1 [Example 107] | 73
CCCOc1nc(Cc2ccc(Cl)cc2)nc2oc(-c3cc(C)c(OCC(O)CNC(=O)CC(C)C)c(C)c3)nc12 (centres unmarked) [Example 220] | 69
CCCOc1nc(Cc2ccccc2)nc2oc(-c3cc(C)c(OC)c(C)c3)nc12 [Example 188] | 112
CCCOc1nc(Cc2ccc(Cl)cc2)nc2oc(-c3cc(C)c(OCCCNCCS(N)(=O)=O)c(C)c3)nc12 [Example 223] | 92
CCOc1nc(Cc2ccc(Cl)cc2)nc2oc(-c3cc(C)c(OCC(O)CS(=O)(=O)c4nnc(C(C)(C)C)[nH]4)c(C)c3)nc12 (centres unmarked) [Example 283] | 92
CCOc1nc(Cc2ccc(Cl)cc2)nc2oc(-c3cc(C)c(OCC(=O)N[C@@H](CO)C(=O)O)c(C)c3)nc12 [Example 226] | 98
CCCOc1nc(CN2CCCOCC2)nc2oc(-c3ccc(F)c(F)c3)nc12 [Example 67] | 105
CCCOc1nc(CN2CCOCC2)nc2oc(-c3cncc(F)c3)nc12 [Example 39] | 82
FCCCOc1nc(CN2CCOCC2)nc2oc(-c3cccc(F)c3)nc12 [Example 31] | 59
CCCOc1nc(Cc2ccc(Cl)cc2)nc2oc(-c3cncnc3)nc12 [Example 174] | 75
CCOc1nc(Cc2ccc(Cl)cc2)nc2oc(-c3cccc(OCC(=O)O)c3)nc12 [Example 310] | 87
CCOc1nc(Cc2ccc(Cl)cc2)nc2oc(-c3cc(C)c(OCC(=O)N4CCC(C(=O)O)C4)c(C)c3)nc12 (centres unmarked) [Example 239] | 86
CCCOc1nc(Cn2cnc(C(=O)OC)c2)nc2oc(-c3cccc(F)c3)nc12 [Example 56] | 44
CCCOc1nc(Cc2ccc(Cl)cc2)nc2oc(-c3ccc(N(C)C)c(C)c3)nc12 [Example 178] | 91
CCOc1nc(Cc2ccc(Cl)cc2)nc2oc(-c3cc(C)c(OCCCSc4ncn[nH]4)c(C)c3)nc12 [Example 296] | 52
CCCOc1nc(CN2CCCC2Cc2ccccc2)nc2oc(-c3cccc(F)c3)nc12 (centres unmarked) [Example 143] | 73

same assay, conditions: example compound at 10 μM; relative to 10 μM S1P; GTP-γ-S SPA, human Edg-1 membranes; read-out: % Activation (Edg-1 receptor activation in percent of the activation by 10 μM S1P)

Compound | activation at 10 µM [%]
CCCOc1nc(Cc2ccc(Cl)cc2)nc2oc(-c3cc(C)c(OCCO)c(C)c3)nc12 [Example 19, 2-{4-[5-(4-Chloro-benzyl)-7-propoxy-oxazolo[5,4-d]pyrimidin-2-yl]-2,6-dimethyl-phenoxy}-ethanol] | 102
